We go through four compounds from patent US6921824B1, “Ruthenium dimeric complexes suitable as antimetastatic and antineoplastic agents” (priority 1999, dated 2005).

Marks after values point to notes of the source that are not given here.

For one series, the system named is MCa mammary carcinoma. Put plainly: Post-surgical treatment: inhibition of lung metastases at advanced stage of growth, MCa mammary carcinoma. The series is classed as in vivo, CBA mice. As to conditions: for Lung metastases Number % T/C / Lung metastases weight % T/C: Treated/Control; for Lung metastases Number / Lung metastases Weight: evaluated day 28; for Growth of the lung metastases (in words): post-surgical treatment at LD0.05 dosages. As to the method: In vivo testing of the activity of the compounds according to the present invention in mice affected by MCa mammary carcinoma: inhibition activity of lung metastases at an advanced stage of growth.
Five groups of CBA kin female mice weighing 23±3 g were inoculated with […] viable MCa mammary carcinoma cells (as determined by trypan blue exclusion) in 0.05 ml Dulbecco's pH 7.4 buffered calcium- and magnesium-free solution (PBS) by intramuscular injection with a sterile insulin syringe. The tumour cells were derived from donors of the same strain injected with the same tumour cells and with the same procedures 2 weeks before. The suspension of tumour cells was prepared in PBS by mechanical mincing of the tumour mass obtained from donor mice, and further removal of tissue debris and cells was obtained, respectively, by filtration through a double layer of sterile gauze and centrifugation at 250× g for 10 minutes. Kin animals were obtained from a colony from Chester Beatthy from London (UK) and were grown in the University of Trieste animal house accordingly to the procedures accepted for the rearing of kin animals. The MCa mammary carcinoma tumour cell-line was derived from a stock, stored in liquid nitrogen, of tumour cells originally obtained from Rudjer Boskovic Institute of Zagreb (HR).
On day 14 since tumour cells implantation, the primary tumour was surgically removed, after general anesthesia of the animals by intraperitoneal injection of 125 mg/kg of Ketamine.
From day 15 to day 20 after tumour cells implantation, the five mice groups were treated, intraperitoneally with a sterile insulin syringe, respectively with: • Group 1 Control (7 animals): 10 ml/kg of body weight/day of sterile and pyrogen-free physiological solution; • Group 2 (7 animals): 28 mg/kg of body weight/day of the compound as prepared in Example 4 in sterile and pyrogen-free physiological solution; • Group 3 (7 animals): 28 mg/kg of body weight/day of the compound as prepared in Example 7 in sterile and pyrogen-free physiological solution; • Group 4 (7 animals): 51 mg/kg of body weight/day of the compound as prepared in Example 8 in sterile and pyrogen-free physiological solution; • Group 5 (7 animals): 52 mg/kg of body weight/day of the compound as prepared in Example 10 in sterile and pyrogen-free physiological solution.
(§1) The dosages corresponding to the LD0.05, calculated separately in animals of the same strain and gender and having the same body weight, was administered intraperitoneally for 6 consecutive days, according to the method of Lichtfield and Wilcoxon, and with an observation time of 10 days since last dose.
On day 28 since tumour cells implantation, the mice were sacrificed by cervical dislocation for the evaluation of lung metastases. The lungs were abducted from the animals immediately after sacrifice, divided in single lobes that were soon examined with a low-magnification microscope equipped with a graduated ocular-grid for the measurement of metastases size, where the orthogonal axes a and b (a≦b) were identified. The metastases were then classified by size and the metastatic tumour weight for each animal was calculated as the sum of each single metastasis weight, each of them considered as a rotation solid developed around the above mentioned axes according to the formula (π/6)·a^2·b. The experimental data obtained were then processed by appropriate statistical tests.
The results are reported in Table 2, where the number and weight of lung metastases obtained in groups of animals treated with the compounds of the present invention with respect to the group of controls treated with sterile and pyrogen-free physiological solution, are shown.

Series [1] in a line: LD0.05 determination, intraperitoneal treatment for 6 consecutive days (Lichtfield and Wilcoxon). The series is classed as in vivo. The conditions noted are these: observation time 10 days since last dose. The procedure:
as §1

For series [2], the system named is murine TS/A adenocarcinoma cells. Put plainly: In vitro cytotoxicity, SRB test (protein synthesis). The series is classed as cell-based. The conditions noted are these: for Antiproliferative activity (in words): SRB and MTT, up to 72 h. As to the method:
In vitro cytotoxicity of complexes of the present invention on murine TS/A adenocarcinoma cells.
4×10^3 murine TS/A adenocarcinoma cells resuspended in 200 μl RPMI-1640 medium supplemented with 10% FCS (fetal calf serum), 2 mM glutamine and 50 μg/ml gentamicin sulphate, were seeded in a 96-wells plate. After 24 hours incubation at 37° C., in 5% CO2, the complexes as described in example 4 (A), in example 7 (B), in example 8 (C) and in example 10 (D), each solubilised in RPMI-1640 medium supplemented with 5% FCS, 2 mM glutamine and 50 μg/ml gentamicin sulphate, were added to the cells, each at a final concentration of 10^−4, 10^−5 and 10^−6 M. Cell viability tests were performed after 24, 48 and 72 hours of exposure to the compounds by assessing both the effect on protein synthesis and on mitochondrial activity by means of colorimetric assays, respectively the solphorodamine B test (SRB) and the MTT analysis. Each value (optical density) is the average percentage ±S.E. versus the untreated controls.
Values such as *p<0.05, **p<0.01 indicate average values statistically different from the controls. Analysis of Variance and Dunnet test were used in the comparison analysis.
The results are reported in Table 3, wherein both the effect on protein synthesis (SRB) and the mitochondrial activity (MTT) are reported for each complexes tested at different dosages after different exposure time.

[3] abbreviates: 51 mg/kg of body weight/day i.p. day 15-20, post-surgical.
Setting [4] is: 28 mg/kg of body weight/day i.p. day 15-20, post-surgical.
Setting [5] is: 52 mg/kg of body weight/day i.p. day 15-20, post-surgical.

As for “[Na]2[trans-RuCl4(Me2SO)]2(μ-bipy) [Example 8]”, the “Lung metastases Number % T/C” value in the series on MCa mammary carcinoma (setting [3]) came to 40%. Also, the “Lung metastases weight % T/C” value in the series with MCa mammary carcinoma (setting [3]) stood at 31%. Besides, in the series with MCa mammary carcinoma (setting [3]), the “Lung metastases Number” value came out at 20.6 ± 7.3. In the series on MCa mammary carcinoma (setting [3]), the “Lung metastases Weight” value amounted to 76 ± 31 mg. In addition, in the series with MCa mammary carcinoma, the “Growth of the lung metastases (in words)” value is listed as “reduce significantly”. For the same compound, the LD0.05 in series [1] is 51 mg/kg of body weight/day. In addition, the “SRB optical density, average percentage ±S.E. versus untreated controls” value in series [2] (10^−4 M, exposure time 24 h) is given as 16 ± 1** %; in series [2] (10^−4 M, exposure time 48 h) it was 49 ± 6** %; in series [2] (10^−4 M, exposure time 72 h) it was 78 ± 5** %; in series [2] (10^−5 M, exposure time 24 h), 102 ± 9%; in series [2] (10^−5 M, exposure time 48 h) it was 86 ± 9%; in series [2] (10^−5 M, exposure time 72 h) it was 88 ± 7%. For the same compound, the “SRB optical density, average percentage ±S.E. versus untreated controls” value amounted to 77 ± 6% in series [2] (10^−6 M, exposure time 24 h); 92 ± 8% in series [2] (10^−6 M, exposure time 48 h); 95 ± 2% in series [2] (10^−6 M, exposure time 72 h). Also, the “Antiproliferative activity (in words)” value in series [2] is “scarce and reversible”.

As for `C[SH](C)(=O)[Ru-]([Cl])([Cl])([Cl])([Cl])[n+]1cc[n+]([Ru-]([Cl])([Cl])([Cl])([Cl])[SH](C)(C)=O)cc1.[Na+].[Na+]` [Example 4, [Na]2[trans-RuCl4(Me2SO)]2(μ-pyz)], the “Lung metastases Number % T/C” value in the series on MCa mammary carcinoma (setting [4]) is 80%. The “Lung metastases weight % T/C” value with MCa mammary carcinoma (setting [4]) was 39%. For the same compound, the “Lung metastases Number” value in the series with MCa mammary carcinoma (setting [4]) is 41.4 ± 8.0. In addition, the “Lung metastases Weight” value with MCa mammary carcinoma (setting [4]) stood at 96 ± 20 mg. Moreover, the “Growth of the lung metastases (in words)” value in the series on MCa mammary carcinoma is “reduce significantly”. Also, in series [1], the LD0.05 was 28 mg/kg of body weight/day. Besides, the “SRB optical density, average percentage ±S.E. versus untreated controls” value in series [2] (10^−4 M, exposure time 24 h) is given as 32 ± 1** %; in series [2] (10^−4 M, exposure time 48 h), 51 ± 2** %; in series [2] (10^−4 M, exposure time 72 h), 66 ± 2** %; in series [2] (10^−5 M, exposure time 24 h), 99 ± 5%; in series [2] (10^−5 M, exposure time 48 h), 95 ± 1%; in series [2] (10^−5 M, exposure time 72 h), 95 ± 2%. For the same compound, the “SRB optical density, average percentage ±S.E. versus untreated controls” value in series [2] (10^−6 M, exposure time 24 h) came to 112 ± 3%; in series [2] (10^−6 M, exposure time 48 h), 102 ± 5%; in series [2] (10^−6 M, exposure time 72 h) it was 107 ± 2%. Further, the “Antiproliferative activity (in words)” value in series [2] was “scarce and reversible”.

In the case of `C[SH](C)(=O)[Ru-]([Cl])([Cl])([Cl])([Cl])[n+]1ccc[n+]([Ru-]([Cl])([Cl])([Cl])([Cl])[SH](C)(C)=O)c1.[Na+].[Na+]` [Example 7, [Na]2[trans-RuCl4(Me2SO)]2(μ-pym)], in the series on MCa mammary carcinoma (setting [4]), the “Lung metastases Number % T/C” value is 78%. Besides, the “Lung metastases weight % T/C” value with MCa mammary carcinoma (setting [4]) is 44%. The “Lung metastases Number” value in the series with MCa mammary carcinoma (setting [4]) is on record as 40.4 ± 7.4. In addition, the “Lung metastases Weight” value in the series on MCa mammary carcinoma (setting [4]) is on record as 107 ± 31 mg. In addition, the “Growth of the lung metastases (in words)” value in the series on MCa mammary carcinoma was “reduce significantly”. Moreover, the LD0.05 in series [1] is listed as 28 mg/kg of body weight/day. Besides, the “SRB optical density, average percentage ±S.E. versus untreated controls” value is 58 ± 2** % in series [2] (10^−4 M, exposure time 24 h); 73 ± 8* % in series [2] (10^−4 M, exposure time 48 h); 61 ± 2** % in series [2] (10^−4 M, exposure time 72 h); 95 ± 9% in series [2] (10^−5 M, exposure time 24 h); 108 ± 5% in series [2] (10^−5 M, exposure time 48 h); 100 ± 1% in series [2] (10^−5 M, exposure time 72 h). The “SRB optical density, average percentage ±S.E. versus untreated controls” value in series [2] (10^−6 M, exposure time 24 h) came to 101 ± 9%; in series [2] (10^−6 M, exposure time 48 h) it was 100 ± 3%; in series [2] (10^−6 M, exposure time 72 h) it was 95 ± 7%.

As for `C[SH](C)(=O)[Ru-]([Cl])([Cl])([Cl])([Cl])[n+]1ccc(CCc2cc[n+]([Ru-]([Cl])([Cl])([Cl])([Cl])[SH](C)(C)=O)cc2)cc1.[Na+].[Na+]` [Example 10, [Na]2[trans-RuCl4(Me2SO)]2(μ-etbipy)], the “Lung metastases Number % T/C” value in the series with MCa mammary carcinoma (setting [5]) was determined as 53%. The “Lung metastases weight % T/C” value in the series with MCa mammary carcinoma (setting [5]) was determined as 29%. The “Lung metastases Number” value in the series with MCa mammary carcinoma (setting [5]) is listed as 27.8 ± 7.8. Also, in the series with MCa mammary carcinoma (setting [5]), the “Lung metastases Weight” value is given as 71 ± 20 mg. Besides, in the series on MCa mammary carcinoma, the “Growth of the lung metastases (in words)” value is listed as “reduce significantly”. The LD0.05 in series [1] is given as 52 mg/kg of body weight/day. The “SRB optical density, average percentage ±S.E. versus untreated controls” value in series [2] (10^−4 M, exposure time 24 h) is listed as 47 ± 2** %; in series [2] (10^−4 M, exposure time 48 h), 62 ± 14** %; in series [2] (10^−4 M, exposure time 72 h), 73 ± 2** %; in series [2] (10^−5 M, exposure time 24 h), 81 ± 8%; in series [2] (10^−5 M, exposure time 48 h) it was 94 ± 3%; in series [2] (10^−5 M, exposure time 72 h), 95 ± 1%. The “SRB optical density, average percentage ±S.E. versus untreated controls” value in series [2] (10^−6 M, exposure time 24 h) is on record as 102 ± 9%; in series [2] (10^−6 M, exposure time 48 h) it was 81 ± 5%; in series [2] (10^−6 M, exposure time 72 h), 93 ± 5%.
